Reference: US20260193659A1, “METHODS FOR TREATING MONGE'S DISEASE” (The Regents of the University of California, priority 2022, published 2026)
“Also recorded” adds a separate entry of the source.

Legend:
[1] = test system: Monge's disease; conditions: patients; cited from earlier work
[2] = test system: CMS cells; experiment: BFU-E colony forming assay with CK2 inhibitors, iPSC-derived CD34+ cells under hypoxia; type: cell-based, human; conditions: 5% O2, 14 days, TBB 25 μM, 50 µM, 100 μM, CX4945 2.5, 5, 10 μM
Experimental: (§1) CD34^+ cells were isolated from iPSC-derived EBs as follows. After 7 days of differentiation, EBs were harvested by spinning at 400 g for 10 minutes. After centrifugation, EBs were dissociated into single cells using Accutase treatment for 10 minutes and then filtered through a 60 μm cell strainer (Falcon). CD34^+ cells were isolated from this cell suspension using EasySep Human CD34 Positive Selection Kit 11 ([…] Technologies, 17856) per the manufacturer's instructions. These iPSC-derived CD34+ cells were used in subsequent qPCR and colony-forming assays.
CD34^+ cells used in this assay were derived from iPSC-generated EBs as described herein. CD34^+ cells were plated at a density of 10^5 cells per 35 mm dish combined with MethoCult H4034 Optimum Media ([…] Technologies, 04044) and 2% FBS. Dishes were incubated at 37° C. in an incubator with 5% CO2 and 5% O2 for 14 days, at which time colonies were scored for BFU-E and CFU-granulocyte, erythrocyte, monocyte, megakaryocyte (CFU-GEMM).
TBB (catalog ab120988) and CX4945 (catalog S2248) were purchased from Abcam and Selleckcam, respectively. Dose-response experiments were performed with the inhibitors using the following concentrations in the colony forming assays using iPSC-derived CD34^+ cells as described herein: TBB (25 μM, 50 µM, and 100 μM) and CX4945 (2.5 μM, 5 μM, and 10 μM).

[3] = test system: LINC02228 (HIKER); experiment: KD efficiency of LINC02228 (HIKER) by ASO, qPCR; type: cell-based, human; conditions: CMS cells
Experimental: Locked nucleic acids (LNAs) targeting HIKER/LINC02228 and LINC00431 were designed and synthesized by Exiqon. The most efficient ASO for each LNA was initially tested in the pilot experiment with and without transfection reagent (Lipofectamine 3000. Life Technologies. L3000-008) in a dose-response experiment at a concentration of 10 nM, 25 nM, 50 nM, and 100 nM. The uptake and the effect of ASO were monitored by qPCR at various stages (iPSC stage and CD34+ cells isolated from EBs). For both lncRNAs, the optimal delivery for all the stages was at the 50 nM concentration without the transfection reagent.
as §1

[4] = test system: zebrafish embryos; experiment: Hemoglobin staining (o-dianisidine) of zebrafish embryos injected with csnk2b morpholino; type: in vivo, Zebrafish (Danio rerio); conditions: 2 dpf
Experimental: Zebrafish (Danio rerio) were raised in a circulating aquarium system on a 14-hour light/10-hour dark cycle at 28.5° C., following standard husbandry procedures.
The morpholino antisense oligo (MO) 5′-[…]-3′ (SEQ ID NO: 23) was synthesized to block the translation initiation of csnk2b, and the 5-mismatch oligo 5′-[…]-3′ (SEQ ID NO: 24) was synthesized as a specificity control (Gene Tools). For synthesizing CSNK2B rescue mRNA that is resistant to the translation blocking MO, the full-length csnk2b coding sequence with 4 base pairs of silent mutations in the MO recognition region was cloned into the pCS2-vector (Azenta Life Sciences), in which the first 24 base pairs of the CSNK2B coding sequence became 5′-[…]-3′ (SEQ ID NO: 25). The csnk2b capped mRNA was synthesized using the mMESSAGE mMACHINE Kit (Ambion, AM1340). Microinjection was performed on WT AB embryos at the 1- to 2-cell stages.
Embryos at 2 dpf were dechorionated and anesthetized with 0.016% tricaine (Fluka, A5040), followed by a 15-minute incubation in 0.6 mg/mL o-dianisidine solution (SigmaAldrich, D9143). This solution was prepared in 0.65% H2 O2 (EMD, HX0647-3), 40% ethanol (KOPTEC, 89125), and 10 mM sodium acetate (Fisher Chemical, S210-500) at room temperature. Stained embryos were washed twice with 1×PBS (Gibco, Thermo Fisher Scientific, 14200166) and then fixed in 4% paraformaldehyde (PFA) (SigmaAldrich, P6148). Hemoglobin signal was observed under a light microscope and quantified according to the area and intensity in the heart and common cardinal vein; embryos were categorized into normal, medium, and low hemoglobin levels.

CC(=O)Nc1nnc(S(N)(=O)=O)s1 [Acetazolamide]
clinical response in Monge's disease [1]: mild response and relief of symptoms

Brc1c(Br)c(Br)c2n[nH]nc2c1Br [TBB]
BFU-E colonies (erythroid colony numbers) [2]: significant changes were observed in the colony numbers in a dose-dependent manner; also recorded: decreases BFU-E colonies in CMS cells in a dose-dependent manner

ASO-1: LNA gapmer ASO targeting HIKER/LINC02228, SEQ ID NO 1: G*G*T*T*G*C*T*T*T*C*A*G*G*C*C*C*C*T*T*A (antisense GGTTGCTTTCAGGCCCCTTA; all phosphorothioate, sugars by position and methylation of C not given here; LNA gapmer)
KD efficiency, ranking among the 3 ASOs [3]: highest KD efficiency

MO: morpholino antisense oligo 5′-CGACACTTCCTCTGAGCTACTCATG-3′ (SEQ ID NO: 23) blocking translation initiation of csnk2b (all phosphorodiamidate morpholino (PMO))
hemoglobin levels ([4]; 1 ng dose): minimal impact on hemoglobin levels | hemoglobin versus controls ([4]; 3 ng and 5 ng MO dosage): remarkable decrease in hemoglobin | morphants showing moderate or low iron staining ([4]; 3 ng and 5 ng MO): more than 97% | hemoglobin, dose dependence ([4]; 1, 3 or 5 ng): dose-dependent loss of hemoglobin
